Five molecules from patent US5319097A, “Pharmaceutical agents” (Imperial Chemical Industries PLC, priority 1990, dated 1994) can be followed below.

Data set [1] in a line: Recent clinical trials, oral administration to asthmatic patients. Type of data set: in vivo. To be noted: administered orally to asthmatic patients. The source says: This ability of compound 1 to be effective when administered orally is unusual and highly desirable.
The nature of data set [2]: Solubility in water. The format is physicochemical.
Data set [3] in a line: Acute toxicity study, mice. To be noted: mouse, in vivo. The source says:
(§1) Acute toxicity studies have been conducted on compound 1 in order to obtain LD50 values.

A short description of data set [4]: Acute toxicity study, rats. To be noted: rat, in vivo.
Text: as §1

Data set [5] can be described thus: Physical stability of the physical forms / conversion between forms. The format is physicochemical.
The nature of data set [6]: Bioavailability of physical forms and compositions (general statement). To be noted: in vivo.
A short description of data set [7]: Comparison of bioavailability in dogs (compositions with polyvinylpyrrolidone and forms A, B and X). Type of data set: in vivo. To be noted: 20 mg tablet with polyvinylpyrrolidone. From the text: During each study period, blood samples were periodically obtained from each animal and the concentration of compound 1 determined.

Like-named read-outs stand apart in the source and are kept apart here. Bounds are passed on as bounds.

As usually defined, the LD50 is the dose expected to kill half of the subjects tested. A high value points to lower toxicity.

Turning to `COc1cc(C(=O)NS(=O)(=O)c2ccccc2C)ccc1Cc1cn(C)c2ccc(NC(=O)OC3CCCC3)cc12` [Compound 1, N-[4-[5-(cyclopentyloxycarbonyl)amino-l-methylindol-3-ylmethyl]-3-methoxybenzoyl]-2-methylbenzenesulphonamide], the “effectiveness in the treatment of asthma” value in data set [1] was “effective”. Moreover, the solubility in water result in data set [2] is recorded as “relatively poor solubility”. Further, the LD50 in data set [3] and in data set [4] was above 500 mg/kg each time.

On to `COc1cc(C(=O)NS(=O)(=O)c2ccccc2C)ccc1Cc1cn(C)c2ccc(NC(=O)OC3CCCC3)cc12` [Form A], for which the “conversion of form A into form B” value in data set [5] (in compositions, high relative humidity and elevated temperatures) is given as “conversion of form A into form B has been found to occur”. Besides, the “stability of form A in the compositions” value in data set [5] (in the compositions according to the invention) is “acceptably stable”. In addition, the “conversion into form B” value in data set [5] (in the presence of water) is reported as “tends to convert into form B”. In addition, the bioavailability entry in data set [6] was “relatively good bioavailability”. In data set [7], the Area under curve amounted to 4028 ng·h/mL and the Maximum concentration was 1.004 µg/mL. In data set [7] (dog, blood, po, 20 mg, read-out: Half-life (converted)), the Half-life was 5.4 h.

`COc1cc(C(=O)NS(=O)(=O)c2ccccc2C)ccc1Cc1cn(C)c2ccc(NC(=O)OC3CCCC3)cc12` [Form B, N-[4-[5-(cyclopentyloxycarbonyl)amino-l-methylindol-3-yl-methyl]-3-methoxybenzoyl]-2-methylbenzenesulphonamide]: in data set [5], the “temperature above which form B loses water” value was “above 60 °C”. In data set [7], this molecule yielded an Area under curve of 773 ng·h/mL, a Half-life of 3.524 h and a Maximum concentration of 0.105 µg/mL.

On to `COc1cc(C(=O)NS(=O)(=O)c2ccccc2C)ccc1Cc1cn(C)c2ccc(NC(=O)OC3CCCC3)cc12` [Form X], for which the physical stability entry in data set [5] is recorded as “physically stable”. Moreover, the bioavailability result in data set [6] is listed as “relatively poor bioavailability”. For the same molecule, in data set [7], the Area under curve stood at 1307 ng·h/mL, the Half-life is 3.590 h and the Maximum concentration came to 0.314 µg/mL.

On to `COc1cc(C(=O)NS(=O)(=O)c2ccccc2C)ccc1Cc1cn(C)c2ccc(NC(=O)OC3CCCC3)cc12` [forms B], for which, in data set [5], the physical stability result is “physically stable”. Also, the bioavailability result in data set [6] is “relatively poor bioavailability”.
